Measurements reported in patent US7598341B2, “Molecules that selectively home to vasculature of premalignant or malignant lesions of the pancreas and other organs” (Burnham Institue for Medical Research, priority 2003, dated 2009).
“Also recorded” adds a separate entry of the source.

Experiments:
[1] = tested on: MDA MB-435 subcutaneous tumor; experiment: Homing to MDA-MB-435 subcutaneous tumor; assay type: in vivo, mouse; conditions: fluorescein-conjugated peptide i.v., FIG. 4B
Description: (§1) To determine whether phage identified to home to pancreatic tumors also home to other types of tumors, these phage were tested using animals having various types of tumors, including bTC3 subcutaneous tumor and MDA MB-435 subcutaneous tumor. bTC3 transplant tumors arise following subcutaneous inoculation of nude mice with cultured islet tumor-derived (bTC3) cells (Efrat et al., 1988). Since the vasculature of a subcutaneously grown bTC3 tumor derives from skin, we also tested another subcutaneous transplant tumor, arising from inoculation of the MDA-MB-435 human breast carcinoma cell line. Finally, K14-HPV16 mice, another well-studied transgenic mouse model of cancer that develop tumors of the squamous epithelial cells of the skin (Arbeit et al., 1994; Coussens et al., 1996), was used to compare RIP1-Tag2 islet tumors to a tumor with similar multistage pathogenesis arising in a different tissue.
(§2) Tumors were dissected from the ear or chest of K14-HPV16 mice. For the bTC3 allograft models, 10^6 bTC3 tumor cells (Efrat et al., 1988) were inoculated under the skin of the rear flank of nu/nu mice in a BALB/c background and allowed to grow until approximately 5 mm in size, and then used for experimental analysis. MDA-MB-435 xenograft models were generated by inoculating 10^6 tumor cells subcutaneously in the chest of nu/nu Balb/c mice. Tumors were used for the homing/binding experiments at 8-12 weeks after injection of the tumor cells.

[2] = tested on: RIP1-Tag2 angiogenic islets and tumors; experiment: Localization of fluorescein-conjugated peptides after intravenous injection; assay type: in vivo, mouse; conditions: for localization in RIP1-Tag2 angiogenic islets / localization in RIP1-Tag2 tumors / localization in normal islets: fluorescein-conjugated peptide i.v., 7 minutes circulation, FIG. 2; for homing selectivity of purified peptides: i.v. into 8-week or 12-week old RIP-Tag2 mice; for homing to normal islets, kidney, brain, liver, lung or spleen: purified peptides i.v.
Description: Fluorescein-conjugated peptides corresponding to phage insert sequences were synthesized using an automated peptide synthesizer with standard solid-phase fluorenylmethoxycarbonyl (Fmoc) chemistry. […] of each individual fluorescein-conjugated peptide was injected intravenously into the tail vein of RIP1-Tag2 mice at 8 or 12 weeks of age, and into normal BL/6 mice. The peptide was allowed to circulate for 7 minutes, followed by heart perfusion first with PBS and then with Zn-buffered formalin. The RIP1-Tag2 pancreas and control organs (brain, kidney, liver, lung and spleen) were removed, fixed for one hour in formalin, washed with 1×PBS, placed in 30% sucrose for several hours, washed with 1×PBS, and embedded in OCT (Tissue-Tek). Each peptide was injected into at least three individual RIP1-Tag2 or normal mice at each of the different stages. To examine the localization of injected fluorescein-conjugated peptides, frozen sections ([…] thick) were cut on a cryostat, mounted in Vectashield Mounting Medium with DAPI (Vector Laboratories) and visualized under an inverted fluorescent microscope or a confocal microscope (Zeiss LSM 510 META).

[3] = tested on: endothelial cell and pericyte markers (MECA-32, NG2); experiment: Co-localization of fluorescein-conjugated peptides with vascular markers; assay type: in vivo, mouse; conditions: fluorescein-conjugated peptide i.v.; for co-localization with endothelial cell and pericyte markers in RIP1-Tag2 islet lesions: MECA-32, NG2, FIG. 3
Description: To confirm that intravenous administration of phage libraries selects for phage carrying peptides that bind to endothelial molecules specific for the target vasculature, tissues were collected following i.v. infusion with the various fluorescein-conjugated peptides, sectioned, and evaluated with endothelial cell markers.
(§3) For immunohistochemistry, frozen slides were pre-incubated with blocking buffer (1×PNB from NEN Biosciences) for one hour, washed several times in 1×PBS and incubated with the primary antibody of interest overnight at 4° C. The cell-specific antibodies used were rat monoclonal anti-mouse CD31 (1:200; BD Pharmingen), rat monoclonal anti-mouse MECA-32 (1:200; BD Pharmingen), rabbit polyclonal anti-mouse NG2 (1:200; Chemicon), and rat monoclonal anti-mouse PDGFRb (CD140b) (1:200; eBioscience). The corresponding secondary antibodies; Cy-3 donkey anti-rabbit IgG and Rhodamine Red donkey anti-rat IgG (Jackson ImmunoResearch), were used at a 1:200 dilution and incubated for one hour at room temperature. The following species-matched immunoglobulins were used as negative controls; rabbit IgG (Vector Laboratories) and rat IgG (Jackson ImmunoResearch) at a 1:200 dilution. The slides were washed several times in 1×PBS and mounted in Vectashield Mounting Medium with DAPI (Vector Laboratories). Hematoxylin and eosin (H&E) staining was performed for histological grading of adjacent sections by standard methods, and lesions were graded as previously described (Lopez and Hanahan, 2002).
The primary analysis involved immunostaining with a mouse pan-endothelial cell antigen (MECA-32) antibody that recognizes a dimer of 50-55 kDa protein subunits present on all endothelial cells (Hallman et al., 1995; Leppink et al., 1989) (FIG. 3 B,C,H,I,N,O). Additional analyses involved immunostaining to reveal CD31/PE-CAM, or systemic infusion of a fluorescent-labeled lectin that binds to the endothelial lumen. In addition, tissue sections from peptide-infused mice were stained with an antibody recognizing NG2, a marker of the neovascular pericytes (Schlingemann et al., 1990, 1991) (FIG. 3 E,F,K,L,Q,R).

[4] = tested on: squamous cell carcinoma in a K14-HPV16 mouse; experiment: Homing to HPV tumor; assay type: in vivo; conditions: FIG. 4A
Description: as §1, §2

[5] = tested on: bTC3-derived subcutaneous transplant tumor in a nude mouse; experiment: Homing to bTC3 subcutaneous tumor; assay type: in vivo; conditions: FIG. 4A
Description: as §1, §2

[6] = tested on: RIP1-Tag2 angiogenic islets and tumors; experiment: In vivo homing of phage (pools and individual phage) in RIP1-Tag2 mice; parameters: species or system mouse; conditions: phage-displayed peptide, i.v., FIG. 1D, with ex vivo binding patterns
Description: For in vivo selection of phage that home specifically to premalignant lesions and malignant tumors, the ex vivo pre-selected phage pool was injected intravenously into 12 week old RIP1-Tag2 mice through the tail vein, allowed to circulate for 7 minutes and heart-perfused with PBS to remove unbound intravascular phage. As the vasculature is preferentially available for the phage to bind in this selection, there is an enrichment of phage that bind to the endothelium of the target tissue.
The RIP1-Tag2 lesions and control tissues (brain, kidney, spleen, lung, ‘white’ pancreas lacking hemorrhagic lesions and liver were excised to allow for comparison of homing efficiencies. Cell suspensions were prepared by mechanical disruption of the tissues. Tissues were washed to remove unbound phage, and the bound phage rescued and amplified by adding E. coli. The phage pool was re-injected into mice at a similar disease stage, and the cycle repeated. In each experiment, non-recombinant control phage were used as a control for relative selectivity.
Sets of 96 phage clones were randomly collected from each homing phage population that selectively homed to premalignant angiogenic islets or pancreatic tumor cells. Peptide-encoding DNA inserts from collected phage clones were amplified by PCR, and the PCR products sequenced. Phage representing the most frequently appearing peptide motifs were individually tested for their ability to selectively home to the lesions on which they were selected, relative to other stages in the tumorigenesis pathway and to control organs. Six of the phage selected for further analysis were from the tumor screen (referred to as KAA, RGR, RSR, VGVA, VGVG and KAR), and one (EYQ) was picked from the angiogenic screen.

[7] = tested on: RIP1-Tag2 pancreatic tumor, bTC3-derived subcutaneous transplant tumor, K14-HPV16 squamous cell carcinoma; experiment: Relative homing efficiency of individual phage in various tumor models (FIG. 4A); assay type: in vivo, mouse; conditions: phage from the RIP1-Tag2 tumor screen
Description: as §1, §2
FIG. 4A is bar graph showing homing efficiency of individual phage to a pancreatic tumor in a RIP1-Tag2 mouse, a bTC3-derived subcutaneous transplant tumor in a nude mouse, and a squamous cell carcinoma in a K14-HPV16 mouse.

PDGFRβ [8] = molecular target: T1, PDGFRβ (Homo sapiens, UniProt P09619); experiment: Phage binding to transfected 293T cells (plaque assay); conditions: FIG. 5A
T1 construct: expressed in transfected cells; host or cells: 293T cells
Description: To confirm that the RGR peptide binds specifically to PDGFRβ, phage displaying this peptide were incubated with 293T cells overexpressing PDGFRβ. Recombinant 293T cells were prepared by transfecting with plasmids encoding PDGFRβ or VEGFR-2 (Borges et al., 2000) using Fugene transfection reagent (Roche Diagnostics). Briefly, 10 μg of plasmid was mixed with 700 μl of DMEM without serum and 30 μl of Fugene reagent, and incubated for 15 minutes at room temperature before adding the mixture to the cells. Forty-eight hours post-transfection the cells were detached from the culture plates using EDTA and washed once with PBS. Recombinant phage displaying the RSR, RGR peptides and control nonrecombinant phage (about 1×10^9 pfu) were incubated with the transfected cells for 2 hours at 4° C., followed by 5 washes with 1% BSA in PBS to remove the unbound phage. The bound phage were rescued by adding bacteria, and the binding efficiencies were determined by plaque assay.

PDGFRβ [9] = molecular target: T2, PDGFRβ (Mus musculus, UniProt P05622); experiment: Co-localization of i.v. injected fluorescein-conjugated peptide with PDGFRβ immunostaining in RIP1-Tag2 tumors; assay type: in vivo; conditions: tissue sections from RIP1-Tag2 tumors, FIG. 5B
T2 construct: from tissue; host or cells: pancreatic islet tumors of RIP1-Tag2 transgenic mice
Description: as §3
FIG. 5A is a bar graph showing binding of RGR or RSR phage to 293 cells transfected with either PDGFRβ, VEGFR2, or non-transfected cells.

T2 sequence (P05622 32-1098): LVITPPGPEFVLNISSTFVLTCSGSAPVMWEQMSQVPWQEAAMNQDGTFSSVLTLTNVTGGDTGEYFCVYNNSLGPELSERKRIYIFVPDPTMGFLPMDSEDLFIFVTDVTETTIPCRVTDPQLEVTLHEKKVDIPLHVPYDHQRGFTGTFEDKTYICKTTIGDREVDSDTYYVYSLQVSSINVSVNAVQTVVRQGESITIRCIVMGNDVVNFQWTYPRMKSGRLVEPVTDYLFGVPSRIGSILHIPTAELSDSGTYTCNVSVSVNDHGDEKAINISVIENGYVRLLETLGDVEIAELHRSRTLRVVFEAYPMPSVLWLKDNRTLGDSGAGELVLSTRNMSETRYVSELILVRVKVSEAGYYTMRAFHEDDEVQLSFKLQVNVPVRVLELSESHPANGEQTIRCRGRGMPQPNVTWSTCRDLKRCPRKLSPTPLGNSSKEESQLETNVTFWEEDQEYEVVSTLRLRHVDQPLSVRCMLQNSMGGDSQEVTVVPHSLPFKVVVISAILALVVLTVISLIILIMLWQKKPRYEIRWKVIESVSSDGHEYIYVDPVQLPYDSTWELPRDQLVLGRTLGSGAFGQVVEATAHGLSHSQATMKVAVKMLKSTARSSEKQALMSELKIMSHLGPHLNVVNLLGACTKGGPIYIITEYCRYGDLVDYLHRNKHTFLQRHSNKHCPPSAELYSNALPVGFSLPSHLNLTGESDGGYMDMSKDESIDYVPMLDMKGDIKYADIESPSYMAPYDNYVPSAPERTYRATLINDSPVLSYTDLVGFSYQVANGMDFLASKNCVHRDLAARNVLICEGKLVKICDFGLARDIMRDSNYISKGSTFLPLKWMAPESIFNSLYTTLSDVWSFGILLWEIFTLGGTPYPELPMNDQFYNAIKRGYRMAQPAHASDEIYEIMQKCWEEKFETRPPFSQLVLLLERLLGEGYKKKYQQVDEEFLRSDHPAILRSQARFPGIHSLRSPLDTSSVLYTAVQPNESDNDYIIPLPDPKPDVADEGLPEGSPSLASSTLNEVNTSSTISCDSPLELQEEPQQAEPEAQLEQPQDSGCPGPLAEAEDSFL
T1 sequence (P09619 33-1106, species assumed): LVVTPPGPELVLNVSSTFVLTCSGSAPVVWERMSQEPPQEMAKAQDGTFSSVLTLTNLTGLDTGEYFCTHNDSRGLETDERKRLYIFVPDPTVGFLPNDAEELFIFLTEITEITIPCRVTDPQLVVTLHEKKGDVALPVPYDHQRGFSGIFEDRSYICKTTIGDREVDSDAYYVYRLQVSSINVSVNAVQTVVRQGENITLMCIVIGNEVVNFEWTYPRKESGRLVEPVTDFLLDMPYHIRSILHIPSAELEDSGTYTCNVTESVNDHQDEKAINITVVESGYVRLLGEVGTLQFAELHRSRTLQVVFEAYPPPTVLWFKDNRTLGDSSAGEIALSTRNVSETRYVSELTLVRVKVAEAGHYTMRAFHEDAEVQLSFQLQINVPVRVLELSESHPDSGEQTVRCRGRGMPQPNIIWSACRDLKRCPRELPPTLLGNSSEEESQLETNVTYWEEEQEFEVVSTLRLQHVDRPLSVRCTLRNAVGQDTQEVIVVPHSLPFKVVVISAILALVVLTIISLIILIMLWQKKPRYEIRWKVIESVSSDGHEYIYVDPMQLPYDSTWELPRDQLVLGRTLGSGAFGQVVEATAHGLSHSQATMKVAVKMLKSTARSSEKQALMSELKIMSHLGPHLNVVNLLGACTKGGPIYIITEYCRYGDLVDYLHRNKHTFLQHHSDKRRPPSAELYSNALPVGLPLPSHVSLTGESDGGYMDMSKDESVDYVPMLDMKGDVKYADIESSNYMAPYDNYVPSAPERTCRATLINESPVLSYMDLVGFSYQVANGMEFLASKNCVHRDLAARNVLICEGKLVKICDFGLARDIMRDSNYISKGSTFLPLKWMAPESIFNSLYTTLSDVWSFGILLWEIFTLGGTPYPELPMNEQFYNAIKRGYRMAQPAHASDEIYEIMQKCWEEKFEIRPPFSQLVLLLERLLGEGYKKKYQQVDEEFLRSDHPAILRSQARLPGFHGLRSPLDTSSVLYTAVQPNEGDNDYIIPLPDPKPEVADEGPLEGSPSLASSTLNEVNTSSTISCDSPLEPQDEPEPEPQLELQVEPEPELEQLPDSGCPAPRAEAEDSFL

CRSRKG [linear homing peptide]
homing to MDA tumor [1]: did not home appreciably
localization in RIP1-Tag2 angiogenic islets [2]: abundant accumulation
localization in RIP1-Tag2 tumors [2]: little or no localization
localization in normal islets [2]: little or no localization
homing selectivity of purified peptides [2]: highly selective for premalignant angiogenic islets
homing to normal islets, kidney, brain, liver, lung or spleen [2]: did not appreciably home
co-localization with MECA-32 or NG2 in adjacent exocrine pancreas or normal pancreatic islets [3]: no co-localization
co-localization with endothelial cell and pericyte markers in RIP1-Tag2 islet lesions [3]: some co-localization both with endothelial cell and pericyte markers; also recorded: co-localized both with the endothelial cell and pericyte markers
homing to HPV tumor [4]: did not home appreciably
homing to TC3 tumor [5]: homed
homing class of individual phage (angiogenic islets or tumors in vivo) [6]: angiogenic islet-selective

CKAAKNK
homing to MDA tumor [1]: homed
localization in RIP1-Tag2 angiogenic islets [2]: little or no localization
localization in RIP1-Tag2 tumors [2]: abundant localization
localization in normal islets [2]: little or no localization
homing selectivity of purified peptides [2]: malignant solid tumors
homing to normal islets, kidney, brain, liver, lung or spleen [2]: did not appreciably home
co-localization with MECA-32 or NG2 in adjacent exocrine pancreas or normal pancreatic islets [3]: no co-localization
co-localization with endothelial cell and pericyte markers in RIP1-Tag2 islet lesions [3]: some co-localization both with endothelial cell and pericyte markers; also recorded: co-localized both with the endothelial cell and pericyte markers
homing to HPV tumor [4]: did not home appreciably
relative homing efficiencies in the various tumor models (category) [7]: selectively home to RIP1-Tag2 tumors
homing to TC3 tumor [5]: did not home appreciably
homing class of individual phage (angiogenic islets or tumors in vivo) [6]: tumor-selective

VGVGEWSV
homing to HPV tumor [4]: did not home appreciably
relative homing efficiencies in the various tumor models (category) [7]: more general homing to other tumors in addition to RIP1-Tag2
homing to TC3 tumor [5]: homed
homing class of individual phage (angiogenic islets or tumors in vivo) [6]: tumor-selective

CEYQLDVE [linear homing peptide]
homing selectivity of purified peptides [2]: highly selective for premalignant angiogenic islets
homing to normal islets, kidney, brain, liver, lung or spleen [2]: did not appreciably home
homing class of individual phage (angiogenic islets or tumors in vivo) [6]: angiogenic islet-selective

FRVGVADV [linear homing peptide; homes to both types of lesion]
homing selectivity of purified peptides [2]: both angiogenic islets and tumors
homing to normal islets, kidney, brain, liver, lung or spleen [2]: did not appreciably home
homing to HPV tumor [4]: did not home appreciably
relative homing efficiencies in the various tumor models (category) [7]: selectively home to RIP1-Tag2 tumors
homing to TC3 tumor [5]: did not home appreciably
homing class of individual phage (angiogenic islets or tumors in vivo) [6]: home to both types of lesion

CRGRRST [linear homing peptide]
homing to MDA tumor [1]: did not home appreciably
localization in RIP1-Tag2 angiogenic islets [2]: localizes
localization in RIP1-Tag2 tumors [2]: localizes
localization in normal islets [2]: little or no localization
homing selectivity of purified peptides [2]: both angiogenic islets and tumors
homing to normal islets, kidney, brain, liver, lung or spleen [2]: did not appreciably home
co-localization with MECA-32 or NG2 in adjacent exocrine pancreas or normal pancreatic islets [3]: no co-localization
co-localization with endothelial cell and pericyte markers in RIP1-Tag2 islet lesions [3]: some co-localization both with endothelial cell and pericyte markers; also recorded: co-localized both with the endothelial cell and pericyte markers
homing to HPV tumor [4]: did not home appreciably
binding to PDGFRβ-transfected cells (PDGFRβ [8]): bind
co-localization with PDGFRβ (PDGFRβ [9]): almost complete co-localization
co-localization with PDGFRβ (PDGFRβ [9]; listed as CRGRRST): co-localize
relative homing efficiencies in the various tumor models (category) [7]: selectively home to RIP1-Tag2 tumors
homing to TC3 tumor [5]: did not home appreciably
homing class of individual phage (angiogenic islets or tumors in vivo) [6]: home to both types of lesion

CKGAKAR
homing selectivity of purified peptides [2]: malignant solid tumors
homing to normal islets, kidney, brain, liver, lung or spleen [2]: did not appreciably home
homing to HPV tumor [4]: homed
relative homing efficiencies in the various tumor models (category) [7]: more general homing to other tumors in addition to RIP1-Tag2
homing to TC3 tumor [5]: did not home appreciably
homing class of individual phage (angiogenic islets or tumors in vivo) [6]: tumor-selective
